According to the kinase profiling compilation of Christmann-Franck et al. (2016):

Tests used:
Assay in all cases: SelectScreen, TR FRET
HCK (human) = HCK (human) (UniProt P08631)
EPHA8 (human) = EPHA8 (human) (UniProt P29322)
NEK4 (human) = NEK4 (human) (UniProt P51957)
JAK3 JH1 JH2 (human) = JAK3 JH1 JH2 (human) (UniProt P52333)
TSSK1B (human) = TSSK1B (human) (UniProt Q9BXA7)
RPS6KA3 KD1 KD2 (human) = RPS6KA3 KD1 KD2 (human) (UniProt P51812)
LRRK2 (human) = LRRK2 (human) (UniProt Q5S007)
TBK1 (human) = TBK1 (human) (UniProt Q9UHD2)
SYK (human) = SYK (human) (UniProt P43405)
MAPKAPK2 (human) = MAPKAPK2 (human) (UniProt P49137)
ROCK2 (human) = ROCK2 (human) (UniProt O75116)
MAPK8 (human) = MAPK8 (human) (UniProt P45983)
SRC (human) = SRC (human) (UniProt P12931)
ERBB2 (human) = ERBB2 (human) (UniProt P04626)
BTK (human) = BTK (human) (UniProt Q06187)
LCK (human) = LCK (human) (UniProt P06239)
GSK3B (human) = GSK3B (human) (UniProt P49841)
MAPK13 (human) = MAPK13 (human) (UniProt O15264)
CSNK1A1 (human) = CSNK1A1 (human) (UniProt P48729)
GSK3A (human) = GSK3A (human) (UniProt P49840)
NEK6 (human) = NEK6 (human) (UniProt Q9HC98)
CDK7 CCNH MNAT1 (human) = CDK7 CCNH MNAT1 (human) (UniProt P50613+P51948+P51946)
INSR (human) = INSR (human) (UniProt P06213)
MAPK9 (human) = MAPK9 (human) (UniProt P45984)
CSF1R (human) = CSF1R (human) (UniProt P07333)
CHEK2 (human) = CHEK2 (human) (UniProt O96017)
SGK1 (human) = SGK1 (human) (UniProt O00141)
SPHK1 (human) = SPHK1 (human) (UniProt Q9NYA1)
Chain of SPHK1 (human) (Q9NYA1 whole entry, looked up): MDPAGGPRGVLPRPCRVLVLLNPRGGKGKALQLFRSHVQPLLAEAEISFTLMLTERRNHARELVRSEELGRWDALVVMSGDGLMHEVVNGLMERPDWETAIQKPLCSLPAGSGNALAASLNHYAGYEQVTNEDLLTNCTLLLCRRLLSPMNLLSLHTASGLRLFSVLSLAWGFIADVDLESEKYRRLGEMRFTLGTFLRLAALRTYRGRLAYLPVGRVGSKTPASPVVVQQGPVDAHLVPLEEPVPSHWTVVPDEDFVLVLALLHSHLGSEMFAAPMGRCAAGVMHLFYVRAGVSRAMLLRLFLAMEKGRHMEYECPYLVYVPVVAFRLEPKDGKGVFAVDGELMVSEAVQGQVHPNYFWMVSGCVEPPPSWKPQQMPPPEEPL

Chain of EPHA8 (human) (P29322 whole entry, looked up): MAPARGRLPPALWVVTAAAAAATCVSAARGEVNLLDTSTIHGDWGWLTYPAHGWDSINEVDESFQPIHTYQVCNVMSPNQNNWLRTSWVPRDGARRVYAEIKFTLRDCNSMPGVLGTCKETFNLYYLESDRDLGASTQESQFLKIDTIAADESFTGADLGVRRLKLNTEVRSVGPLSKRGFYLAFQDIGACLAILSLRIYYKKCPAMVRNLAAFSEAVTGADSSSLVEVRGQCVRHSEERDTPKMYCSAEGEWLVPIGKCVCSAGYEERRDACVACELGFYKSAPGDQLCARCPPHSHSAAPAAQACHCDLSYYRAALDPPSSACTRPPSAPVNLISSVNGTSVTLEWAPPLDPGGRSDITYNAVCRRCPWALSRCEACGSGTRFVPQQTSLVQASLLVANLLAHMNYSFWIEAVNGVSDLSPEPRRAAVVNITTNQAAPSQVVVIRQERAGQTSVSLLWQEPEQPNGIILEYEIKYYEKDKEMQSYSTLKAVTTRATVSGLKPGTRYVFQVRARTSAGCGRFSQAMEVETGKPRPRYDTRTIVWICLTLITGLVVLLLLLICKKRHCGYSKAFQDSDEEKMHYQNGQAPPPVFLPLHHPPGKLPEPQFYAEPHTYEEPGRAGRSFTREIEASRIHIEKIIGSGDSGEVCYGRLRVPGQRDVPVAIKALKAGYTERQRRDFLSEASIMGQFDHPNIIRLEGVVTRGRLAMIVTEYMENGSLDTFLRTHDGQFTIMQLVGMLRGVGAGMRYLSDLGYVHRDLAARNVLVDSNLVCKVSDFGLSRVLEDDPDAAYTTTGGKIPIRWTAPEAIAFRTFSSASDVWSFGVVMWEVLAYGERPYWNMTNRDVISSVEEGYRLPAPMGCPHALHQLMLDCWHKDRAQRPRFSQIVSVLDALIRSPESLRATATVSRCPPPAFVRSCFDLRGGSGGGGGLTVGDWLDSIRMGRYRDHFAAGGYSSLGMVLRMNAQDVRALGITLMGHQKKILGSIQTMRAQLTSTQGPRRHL
Chain of GSK3A (human) (P49840 whole entry, looked up): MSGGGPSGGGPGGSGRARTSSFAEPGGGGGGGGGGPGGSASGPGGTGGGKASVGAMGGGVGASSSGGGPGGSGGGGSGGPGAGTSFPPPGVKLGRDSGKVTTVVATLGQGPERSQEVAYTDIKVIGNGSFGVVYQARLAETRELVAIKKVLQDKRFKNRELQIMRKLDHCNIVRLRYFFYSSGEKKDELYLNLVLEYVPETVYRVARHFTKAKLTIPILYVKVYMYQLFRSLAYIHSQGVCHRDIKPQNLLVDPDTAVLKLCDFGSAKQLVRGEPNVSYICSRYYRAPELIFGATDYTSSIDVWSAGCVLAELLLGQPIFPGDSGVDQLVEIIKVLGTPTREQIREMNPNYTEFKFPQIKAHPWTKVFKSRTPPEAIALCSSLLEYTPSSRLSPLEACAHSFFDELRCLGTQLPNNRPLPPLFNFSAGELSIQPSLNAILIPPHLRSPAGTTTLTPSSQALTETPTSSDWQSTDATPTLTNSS
Chain of HCK (human) (P08631 whole entry, looked up): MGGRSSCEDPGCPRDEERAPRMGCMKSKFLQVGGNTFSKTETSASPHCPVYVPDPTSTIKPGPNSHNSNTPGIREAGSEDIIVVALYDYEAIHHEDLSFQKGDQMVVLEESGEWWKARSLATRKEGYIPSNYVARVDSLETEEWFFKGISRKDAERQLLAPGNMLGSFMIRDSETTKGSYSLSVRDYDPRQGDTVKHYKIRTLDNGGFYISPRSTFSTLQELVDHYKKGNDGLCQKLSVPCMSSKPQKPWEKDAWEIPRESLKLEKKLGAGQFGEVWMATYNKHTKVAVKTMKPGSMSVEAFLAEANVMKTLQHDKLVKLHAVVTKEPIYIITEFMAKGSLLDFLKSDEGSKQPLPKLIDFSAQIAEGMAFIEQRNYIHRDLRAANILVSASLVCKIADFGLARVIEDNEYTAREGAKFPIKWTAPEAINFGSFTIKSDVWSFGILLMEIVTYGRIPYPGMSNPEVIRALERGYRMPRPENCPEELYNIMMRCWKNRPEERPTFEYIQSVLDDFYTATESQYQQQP
Chain of CDK7 CCNH MNAT1 (human) (P50613 whole entry, looked up): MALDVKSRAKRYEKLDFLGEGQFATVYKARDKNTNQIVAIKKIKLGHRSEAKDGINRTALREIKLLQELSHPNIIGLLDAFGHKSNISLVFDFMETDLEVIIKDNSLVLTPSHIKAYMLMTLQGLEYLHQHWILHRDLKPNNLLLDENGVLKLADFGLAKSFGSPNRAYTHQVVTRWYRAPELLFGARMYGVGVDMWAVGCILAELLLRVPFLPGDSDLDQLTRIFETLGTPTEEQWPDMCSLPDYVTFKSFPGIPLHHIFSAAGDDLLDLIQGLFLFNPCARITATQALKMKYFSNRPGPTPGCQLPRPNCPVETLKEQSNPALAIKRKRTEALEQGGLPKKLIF
Chain of CDK7 CCNH MNAT1 (human) (P51946 whole entry, looked up): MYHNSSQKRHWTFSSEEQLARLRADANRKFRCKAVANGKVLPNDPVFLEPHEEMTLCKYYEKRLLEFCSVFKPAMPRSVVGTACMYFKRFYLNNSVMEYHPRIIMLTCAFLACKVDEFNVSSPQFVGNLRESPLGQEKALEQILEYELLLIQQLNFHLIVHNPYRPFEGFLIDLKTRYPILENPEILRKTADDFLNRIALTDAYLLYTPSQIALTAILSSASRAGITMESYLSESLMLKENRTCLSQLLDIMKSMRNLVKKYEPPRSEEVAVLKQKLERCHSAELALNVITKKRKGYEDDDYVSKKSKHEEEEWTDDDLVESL
Chain of CDK7 CCNH MNAT1 (human) (P51948 whole entry, looked up): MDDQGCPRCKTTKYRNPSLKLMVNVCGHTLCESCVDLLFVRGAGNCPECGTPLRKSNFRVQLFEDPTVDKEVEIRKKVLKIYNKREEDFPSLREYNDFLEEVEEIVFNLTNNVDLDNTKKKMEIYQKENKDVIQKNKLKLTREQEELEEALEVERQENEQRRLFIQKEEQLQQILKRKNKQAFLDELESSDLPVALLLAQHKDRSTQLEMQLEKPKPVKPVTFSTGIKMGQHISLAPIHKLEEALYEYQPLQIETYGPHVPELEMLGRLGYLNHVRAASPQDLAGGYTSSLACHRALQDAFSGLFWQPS
Chain of SGK1 (human) (O00141 whole entry, looked up): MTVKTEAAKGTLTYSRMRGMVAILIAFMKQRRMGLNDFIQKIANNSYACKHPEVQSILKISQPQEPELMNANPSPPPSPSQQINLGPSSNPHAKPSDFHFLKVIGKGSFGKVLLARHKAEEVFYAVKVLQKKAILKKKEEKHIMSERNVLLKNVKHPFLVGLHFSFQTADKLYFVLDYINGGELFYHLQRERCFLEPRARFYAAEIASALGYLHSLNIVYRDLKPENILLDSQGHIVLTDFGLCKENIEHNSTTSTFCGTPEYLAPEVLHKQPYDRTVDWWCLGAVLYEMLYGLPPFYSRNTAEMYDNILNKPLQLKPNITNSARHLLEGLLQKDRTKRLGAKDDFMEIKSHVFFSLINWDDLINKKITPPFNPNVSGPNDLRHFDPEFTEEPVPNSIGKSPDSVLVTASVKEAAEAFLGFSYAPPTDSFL
Chain of CSNK1A1 (human) (P48729 whole entry, looked up): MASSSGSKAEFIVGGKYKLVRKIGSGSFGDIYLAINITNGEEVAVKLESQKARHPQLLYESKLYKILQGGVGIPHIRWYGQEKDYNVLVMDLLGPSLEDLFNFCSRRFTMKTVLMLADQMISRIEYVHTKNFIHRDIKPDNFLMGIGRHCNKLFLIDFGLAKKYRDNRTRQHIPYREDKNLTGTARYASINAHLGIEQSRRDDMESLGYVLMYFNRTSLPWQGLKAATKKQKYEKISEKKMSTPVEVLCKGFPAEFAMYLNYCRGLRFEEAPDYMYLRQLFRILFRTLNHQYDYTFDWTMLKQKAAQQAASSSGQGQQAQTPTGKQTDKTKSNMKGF
Chain of MAPK9 (human) (P45984 whole entry, looked up): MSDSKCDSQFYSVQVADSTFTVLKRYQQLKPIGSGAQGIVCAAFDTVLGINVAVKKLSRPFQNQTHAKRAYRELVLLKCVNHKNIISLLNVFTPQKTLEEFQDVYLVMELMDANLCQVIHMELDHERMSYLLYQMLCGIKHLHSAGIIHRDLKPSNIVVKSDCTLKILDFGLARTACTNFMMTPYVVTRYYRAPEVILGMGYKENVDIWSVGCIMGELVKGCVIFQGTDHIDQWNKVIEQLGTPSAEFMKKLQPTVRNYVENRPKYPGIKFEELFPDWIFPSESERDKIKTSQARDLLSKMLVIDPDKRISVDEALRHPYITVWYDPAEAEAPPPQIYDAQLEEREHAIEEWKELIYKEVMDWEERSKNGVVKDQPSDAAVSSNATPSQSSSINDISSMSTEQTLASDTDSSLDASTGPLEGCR
Chain of MAPK13 (human) (O15264 whole entry, looked up): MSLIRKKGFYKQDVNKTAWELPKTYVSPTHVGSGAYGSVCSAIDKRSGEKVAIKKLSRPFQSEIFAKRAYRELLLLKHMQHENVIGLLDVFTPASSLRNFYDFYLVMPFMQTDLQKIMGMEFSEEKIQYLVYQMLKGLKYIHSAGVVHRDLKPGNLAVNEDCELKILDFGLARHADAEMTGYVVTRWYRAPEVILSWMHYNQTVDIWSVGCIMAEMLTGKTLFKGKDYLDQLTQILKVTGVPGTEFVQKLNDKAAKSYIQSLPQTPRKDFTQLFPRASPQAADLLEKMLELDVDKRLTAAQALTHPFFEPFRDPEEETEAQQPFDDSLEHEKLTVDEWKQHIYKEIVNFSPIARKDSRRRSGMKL

inhibition (HCK (human); compound 0.1 µM): 16.7%
inhibition (HCK (human); compound 1.0 µM): 19.1%
inhibition (HCK (human); compound 10.0 µM): 51.8%
inhibition (EPHA8 (human); compound 0.1 µM): 5.4%
inhibition (EPHA8 (human); compound 1.0 µM): 6.4%
inhibition (EPHA8 (human); compound 10.0 µM): 24.3%
inhibition (NEK4 (human); compound 0.1 µM): 10.8%
inhibition (NEK4 (human); compound 1.0 µM): 13.5%
inhibition (NEK4 (human); compound 10.0 µM): 37.8%
inhibition (JAK3 JH1 JH2 (human); compound 0.1 µM): 9.3%
inhibition (JAK3 JH1 JH2 (human); compound 1.0 µM): 6.1%
inhibition (JAK3 JH1 JH2 (human); compound 10.0 µM): 25.6%
inhibition (TSSK1B (human); compound 0.1 µM): 15.5%
inhibition (TSSK1B (human); compound 1.0 µM): 11.4%
inhibition (TSSK1B (human); compound 10.0 µM): 24.9%
inhibition (RPS6KA3 KD1 KD2 (human); compound 0.1 µM): 6.4%
inhibition (RPS6KA3 KD1 KD2 (human); compound 1.0 µM): 7.8%
inhibition (RPS6KA3 KD1 KD2 (human); compound 10.0 µM): 18.9%
inhibition (LRRK2 (human); compound 0.1 µM): 19.9%
inhibition (LRRK2 (human); compound 1.0 µM): 25.4%
inhibition (LRRK2 (human); compound 10.0 µM): 54.3%
inhibition (TBK1 (human); compound 0.1 µM): -1.6%
inhibition (TBK1 (human); compound 1.0 µM): 7.8%
inhibition (TBK1 (human); compound 10.0 µM): 33.2%
inhibition (SYK (human); compound 0.1 µM): 19.9%
inhibition (SYK (human); compound 1.0 µM): 13.2%
inhibition (SYK (human); compound 10.0 µM): 61.6%
inhibition (MAPKAPK2 (human); compound 0.1 µM): 9.5%
inhibition (MAPKAPK2 (human); compound 1.0 µM): 7.8%
inhibition (MAPKAPK2 (human); compound 10.0 µM): 19.8%
inhibition (ROCK2 (human); compound 0.1 µM): -1.9%
inhibition (ROCK2 (human); compound 1.0 µM): -0.2%
inhibition (ROCK2 (human); compound 10.0 µM): -5.8%
inhibition (MAPK8 (human); compound 0.1 µM): 2.8%
inhibition (MAPK8 (human); compound 1.0 µM): 0.1%
inhibition (MAPK8 (human); compound 10.0 µM): 6.2%
inhibition (SRC (human); compound 0.1 µM): 3.7%
inhibition (SRC (human); compound 1.0 µM): 7.4%
inhibition (SRC (human); compound 10.0 µM): 15%
inhibition (ERBB2 (human); compound 0.1 µM): -4.3%
inhibition (ERBB2 (human); compound 1.0 µM): 2.2%
inhibition (ERBB2 (human); compound 10.0 µM): -10.5%
inhibition (BTK (human); compound 0.1 µM): 10.9%
inhibition (BTK (human); compound 1.0 µM): 13.4%
inhibition (BTK (human); compound 10.0 µM): 15.4%
inhibition (LCK (human); compound 0.1 µM): 27.2%
inhibition (LCK (human); compound 1.0 µM): 37.9%
inhibition (LCK (human); compound 10.0 µM): 77.3%
inhibition (GSK3B (human); compound 0.1 µM): 7.3%
inhibition (GSK3B (human); compound 1.0 µM): 8.1%
inhibition (GSK3B (human); compound 10.0 µM): 64%
inhibition (MAPK13 (human); compound 0.1 µM): 14.5%
inhibition (MAPK13 (human); compound 1.0 µM): 15.8%
inhibition (MAPK13 (human); compound 10.0 µM): 10%
inhibition (CSNK1A1 (human); compound 0.1 µM): 5.1%
inhibition (CSNK1A1 (human); compound 1.0 µM): 4.8%
inhibition (CSNK1A1 (human); compound 10.0 µM): 13.3%
inhibition (GSK3A (human); compound 0.1 µM): 8.6%
inhibition (GSK3A (human); compound 1.0 µM): 12.5%
inhibition (GSK3A (human); compound 10.0 µM): 65.6%
inhibition (NEK6 (human); compound 0.1 µM): 5.2%
inhibition (NEK6 (human); compound 1.0 µM): -7.4%
inhibition (NEK6 (human); compound 10.0 µM): 9.6%
inhibition (CDK7 CCNH MNAT1 (human); compound 0.1 µM): 1%
inhibition (CDK7 CCNH MNAT1 (human); compound 1.0 µM): 6.4%
inhibition (CDK7 CCNH MNAT1 (human); compound 10.0 µM): 11.8%
inhibition (INSR (human); compound 0.1 µM): 9.9%
inhibition (INSR (human); compound 1.0 µM): 7.3%
inhibition (INSR (human); compound 10.0 µM): 0.6%
inhibition (MAPK9 (human); compound 0.1 µM): -1.5%
inhibition (MAPK9 (human); compound 1.0 µM): 3.7%
inhibition (MAPK9 (human); compound 10.0 µM): 10.8%
inhibition (CSF1R (human); compound 0.1 µM): 15.7%
inhibition (CSF1R (human); compound 1.0 µM): 25.8%
inhibition (CSF1R (human); compound 10.0 µM): 58.3%
inhibition (CHEK2 (human); compound 0.1 µM): 11.8%
inhibition (CHEK2 (human); compound 1.0 µM): 17.1%
inhibition (CHEK2 (human); compound 10.0 µM): 43.6%
inhibition (SGK1 (human); compound 0.1 µM): 10.9%
inhibition (SGK1 (human); compound 1.0 µM): 17.4%
inhibition (SGK1 (human); compound 10.0 µM): 49.8%
inhibition (SPHK1 (human); compound 0.1 µM): -3.4%
inhibition (SPHK1 (human); compound 1.0 µM): -4.1%
inhibition (SPHK1 (human); compound 10.0 µM): -2.1%
SMILES: Cn1cc(-c2cnc3ccc4ccc(CC(=O)NCc5ccccn5)cc4c(=O)c3c2)cn1
